Measurements as given in patent US10202343B2, “MIF modulators” (YALE UNIVERSITY, priority 2008, dated 2019).
Where two headings read alike, the source gives them in different places.

Legend:
[1] = molecular target: T1, MIF-CD74 Binding (biotin-labeled recombinant human MIF, recombinant human MIF receptor CD74 ectodomain) (Homo sapiens, UniProt P14174); assay: MIF-CD74 binding (capture) assay; design: concentration of C74 % MaxInhib (number after @): unit not given here; conditions: for CD74 % MaxInhib / C74 % MaxInhib: number before @; for Capture IC50 / Capture % Max. Inhib.: Table 3; for concentration of C74 % MaxInhib (number after @) / C74 % MaxInhib: Table 18
T1 sequence (P14174 2-115 limits assumed): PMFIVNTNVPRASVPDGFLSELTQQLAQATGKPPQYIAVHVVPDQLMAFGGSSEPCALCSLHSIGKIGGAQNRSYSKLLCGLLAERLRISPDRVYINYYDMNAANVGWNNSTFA

[2] = molecular target: T2, Human MIF (MIF tautomerase activity) (Homo sapiens, UniProt P14174); assay: HPP tautomerase assay; format: biochemical; conditions: for IC50: read-out: HPP IC50
T2 construct: made in house
T2 sequence (P14174 2-115 limits assumed): T1 sequence (P14174 2-115 limits assumed)
Method: The HPP assay used was adapted to the microtiter plate format. […] Dilutions of the enzyme were prepared in 50 mM sodium phosphate buffer, 1 mM EDTA, pH 6.5. HPP was obtained from Aldrich. A stock solution of 60 mM HPP in ethanol is prepared and kept for maximally 4 hours on ice. The working solution (600 μM) of the substrate was prepared by diluting an aliquot of the stock solution with 50 mM sodium phosphate buffer, 1 mM EDTA, pH 6.5. […] Inhibitor and enzyme solutions were pipetted manually using an Eppendorf 12-channel pipette. Addition of substrate to start the reaction was performed with an Igel 96 pipetting station (OpalJena, Jena, Germany), which allows simultaneous addition of fluid to all 96 wells of the plates. Optical density (OD) was determined using a SPECTRAmax 250 reader (Molecular Devices). The reader was operated with the SoftmaxPro 2.6.1 software. Assay: Three wells of the microtiter plates were filled with buffer only, to allow for blanking. […] The last step was performed using the 96-channel pipetting device. The plate was then immediately (i.e. within a few seconds) transferred manually to the SPECTRAmax 250 reader and the optical density was determined (310 nm). From the data obtained, IC50 values were calculated using Excel® and XLfit® software.

[3] = Table 2, read-out: MIF-CD74 IC50
[4] = Table 19, data cell c5, read-out: CD74 IC50
[5] = Table 13, data cell c5, number before @

COc1cccc(Cn2c(=O)oc3ccc(OC)cc32)c1 [Compound 3, 5-methoxy-3-(3-methoxy-benzyl)-3H-benzooxazol-2-one]
concentration of CD74 % MaxInhib (number after @) ([1]; Table 4): 1.87 µM
concentration of HPP Max Inhib (number after @) ([2]; Table 4): > 500 µM
HPP Max Inhib ([2]; Table 4, number before @): 41%

COc1cccc(Cn2c(=O)oc3ccc(CO)cc32)c1 [Compound 4, 5-hydroxymethyl-3-(3-methoxy-benzyl)-3H-benzooxazol-2-one]
concentration of CD74 % MaxInhib (number after @) ([1]; Table 4): 0.039 µM
CD74 % MaxInhib ([1]; Table 4): 27%
HPP Max Inhib ([2]; Table 1): 44%
concentration of HPP Max Inhib (number after @) ([2]; Table 4): 200 µM

COc1cccc(Cn2c(=O)oc3ccc(C)cc32)c1 [Compound 5]
concentration of CD74 % MaxInhib (number after @) ([1]; Table 4): 1.87 µM
CD74 % MaxInhib ([1]; Table 4): 42%
IC50 ([2]; Table 1): 2.9 µM

O=c1oc2cc(O)ccc2n1Cc1ccccc1 [Compound 14]
concentration of CD74 % MaxInhib (number after @) ([1]; Table 4): 0.039 µM
CD74 % MaxInhib ([1]; Table 4): 22%
HPP Max Inhib ([2]; Table 1): 28%
concentration of HPP Max Inhib (number after @) ([2]; Table 4): 5 µM

c1ccc(Cn2c(-c3cscn3)nc3ccccc32)cc1 [Compound 17, 4-(1-benzyl-1H-benzo[d]imidazol-2-yl)thiazole]
concentration of CD74 % MaxInhib (number after @) ([1]; Table 5): 0.039 µM
IC50 ([1]; Table 5, read-out: CD74 IC50): > 1000 µM
concentration of HPP Max Inhib (number after 'at') ([2]; Table 5): 5 µM

c1ccc(Cn2c(Cc3ccccn3)nc3ccccc32)cc1 [Compound 19]
concentration of CD74 % MaxInhib (number after @) ([1]; Table 5): 1.87 µM
CD74 % MaxInhib ([1]; Table 5): 40%
HPP Max. Inhib. ([2]; Table 2): 38%

O=C(c1cc2ccccc2o1)N1CCc2ccccc21 [Compound 21]
IC50 [1, 3]: 4 µM
IC50 ([1]; Table 5, read-out: CD74 IC50): 4 µM
IC50 ([1]; Table 14, read-out: CD74 IC50): 4 µM
IC50 ([2]; Table 5): 3 µM

CC(=O)Oc1ccc2nc(-c3cc4ccccc4o3)oc(=O)c2c1 [Compound 22]
IC50 [1, 3]: 2.5 µM
IC50 ([1]; Table 5, read-out: CD74 IC50): 2.5 µM
IC50 ([1]; Table 15, read-out: CD74 IC50): 2.5 µM
IC50 ([2]; Table 15): 730 µM

O=c1c2ccc(F)cc2sn1-c1ccc(Cl)cc1 [Compound 25]
activity in the capture assay [1]: agonist behavior
MIF-CD74 IC50 ([1]; Table 2): agonist
CD74 IC50 ([1]; Table 5): agonist
IC50 ([2]; Table 2): 4.2 µM

O=c1c2ccc(F)cc2sn1-c1ccc(Cl)cc1 [Compound 26]
Capture IC50 [1]: agonist
CD74 IC50 ([1]; Table 6, data cell c9): agonist
IC50 ([2]; Table 3): 4.2 µM
IC50 ([2]; Table 6, data cell c7): 4.2 µM

COc1ccccc1-n1sc2ccc(Cl)cc2c1=O [Compound 31]
Capture % Max. Inhib. [1]: 7%
CD74 % MaxInhib ([1]; Table 6, data cell c8): 7%
IC50 ([2]; Table 3): 6.6 µM
IC50 ([2]; Table 6, data cell c7): 6.6 µM

O=c1c2cc(F)ccc2sn1-c1cccc(O)c1 [Compound 32]
Capture % Max. Inhib. [1]: 13%
CD74 % MaxInhib ([1]; Table 6, data cell c8): 13%
IC50 ([2]; Table 3): 5.9 µM
IC50 ([2]; Table 6, data cell c7): 5.9 µM

CC(=O)OCc1cccc(-n2sc3cc(F)ccc3c2=O)c1 [Compound 33]
Capture % Max. Inhib. [1]: 12%
CD74 % MaxInhib ([1]; Table 6, data cell c8): 12%
IC50 ([2]; Table 3): 2.3 µM
IC50 ([2]; Table 6, data cell c7): 2.3 µM

O=c1c2cc([N+](=O)[O-])ccc2sn1-c1ccc(Cl)cc1 [Compound 34]
Capture % Max. Inhib. [1]: 11%
CD74 % MaxInhib ([1]; Table 6, data cell c8): 11%
IC50 ([2]; Table 3): 6.2 µM
IC50 ([2]; Table 6, data cell c7): 6.2 µM

O=c1c2ccc(Br)cc2sn1-c1ccc(Cl)cc1 [Compound 36]
Capture % Max. Inhib. [1]: 10%
CD74 % MaxInhib ([1]; Table 6, data cell c8): 10%
IC50 ([2]; Table 3): 11 µM
IC50 ([2]; Table 6, data cell c7): 11 µM

COc1cccc(-n2sc3ccc(F)cc3c2=O)c1 [Compound 38]
Capture IC50 [1]: agonist
CD74 IC50 ([1]; Table 6, data cell c9): agonist
IC50 ([2]; Table 3): 8 µM
IC50 ([2]; Table 6, data cell c7, listed as MIF-113): 8 µM

N#Cc1ccc2sn(-c3ccc(Cl)cc3)c(=O)c2c1 [Compound 40]
Capture IC50 [1]: agonist
CD74 IC50 ([1]; Table 6, data cell c9): agonist
IC50 ([2]; Table 3): 19 µM
IC50 ([2]; Table 6, data cell c7): 19 µM

COC(=O)CC1CC(c2ccc(O)cc2)=NO1 (stereo not drawn) [ISO-1, reference compound]
activity in the capture assay [1]: inactive
activity in the HPP tautomerase assay [2]: inactive

Oc1ccc(-n2cc(-c3cncc4ccccc34)nn2)cc1 [MIF-021]
IC50 ([1]; Table 21, column beside HPP IC50): Agonist
HPP IC50 ([2]; Table 21): agonist

COc1ccccc1Cn1cc(-c2ccc(O)cc2)nn1 [MIF-033]
CD74 IC50 ([1]; Table 19, data cell c5): agonist
HPP IC50 ([2]; Table 19, data cell c6): agonist

COc1cccc(Cn2cc(-c3ccc(O)cc3)nn2)c1OC [MIF-034]
IC50 [1, 4]: 1.2 µM
IC50 ([2]; Table 19, data cell c6): 0.5 to 1 µM

COC(=O)c1cccc(Cn2cc(-c3ccc(O)cc3)nn2)c1 [MIF-036]
IC50 [1, 4]: 1.2 µM
IC50 ([2]; Table 19, data cell c6): 2.5 µM

NC(=O)c1nc2ccccc2n1Cc1ccccc1 [MIF-062]
concentration of CD74 % MaxInhib (number after @) ([1]; Table 5): 1.87 µM
CD74 % MaxInhib ([1]; Table 5): 25%
HPP Max Inhib ([2]; Table 5): 16%

CN(C)C(=O)c1nc2ccccc2n1Cc1ccccc1 [MIF-063]
concentration of CD74 % MaxInhib (number after @) ([1]; Table 5): 1.87 µM
CD74 % MaxInhib ([1]; Table 5): 27%
HPP Max Inhib ([2]; Table 5): 0%

CNC(=O)c1nc2ccccc2n1Cc1ccccc1 [MIF-065]
concentration of CD74 % MaxInhib (number after @) ([1]; Table 5): 1.87 µM
CD74 % MaxInhib ([1]; Table 5): 16%
HPP Max Inhib ([2]; Table 5): 13%

COCCc1nc2ccccc2n1Cc1ccccc1 [MIF-066]
concentration of CD74 % MaxInhib (number after @) ([1]; Table 5): 1.87 µM
CD74 % MaxInhib ([1]; Table 5): 25%
HPP Max Inhib ([2]; Table 5): 18%

Oc1ccc(-n2cc(Cc3ccccc3)nn2)cc1F [MIF-069]
concentration of C74 % MaxInhib (number after @) [1]: 0.0078
C74 % MaxInhib [1]: 14%
IC50 ([2]; Table 18): 760 µM

COc1ccccc1Cc1cn(-c2ccc(O)cc2)nn1 [MIF-070]
concentration of C74 % MaxInhib (number after @) [1]: 0.0078
C74 % MaxInhib [1]: 14%
concentration of HPP Max Inhib (number after @) ([2]; Table 18): 1000
HPP Max Inhib ([2]; Table 18, number before @): 35%

Oc1ccc(-n2cc(Cc3ccccc3O)nn2)cc1 [MIF-071]
concentration of C74 % MaxInhib (number after @) [1]: 0.24
C74 % MaxInhib [1]: 9%
IC50 ([2]; Table 18): 1000 µM

O=C(c1cc2ccccc2o1)c1cc2cc(O)ccc2o1 [MIF-072]
concentration of CD74 % MaxInhib (number after @) ([1]; Table 13): 0.24 µM
CD74 % MaxInhib ([1]; Table 13): 9%
concentration of HPP Max Inhib (number after @) ([2]; Table 13): 1000 µM
HPP Max Inhib [2, 5]: 30%

O=C(c1cc2ccccc2o1)c1cc2cc(F)ccc2o1 [MIF-073]
concentration of CD74 % MaxInhib (number after @) ([1]; Table 13): 0.12 µM
CD74 % MaxInhib ([1]; Table 13): 17%
concentration of HPP Max Inhib (number after @) ([2]; Table 13): 700 µM
HPP Max Inhib [2, 5]: 33%

COc1cccc(Cc2cn(-c3ccc(O)cc3)nn2)c1 [MIF-074]
concentration of C74 % MaxInhib (number after @) [1]: 0.24
C74 % MaxInhib [1]: 8%
concentration of HPP Max Inhib (number after @) ([2]; Table 18): 1000
HPP Max Inhib ([2]; Table 18, number before @): 40%

COc1cccc(C(=O)c2cn(-c3ccc(O)cc3)nn2)c1 [MIF-076]
concentration of C74 % MaxInhib (number after @) [1]: 0.0078
C74 % MaxInhib [1]: 12%
IC50 ([2]; Table 18): 790 µM

Cc1ccc2cc(C(=O)c3cc4ccccc4o3)oc2c1 [MIF-077]
concentration of CD74 % MaxInhib (number after @) ([1]; Table 13): 0.24 µM
CD74 % MaxInhib ([1]; Table 13): 16%
concentration of HPP Max Inhib (number after @) ([2]; Table 13): 1000 µM
HPP Max Inhib [2, 5]: 30%

Cc1cccc(Cc2cn(-c3ccc(O)cc3)nn2)c1 [MIF-079]
concentration of C74 % MaxInhib (number after @) [1]: 0.078
C74 % MaxInhib [1]: 30%
IC50 ([2]; Table 18): 475 µM

COc1ccc2cc(C(=O)N3CCc4ccccc43)oc2c1 [MIF-083]
concentration of CD74 % MaxInhib (number after @) ([1]; Table 14): 0.078 µM
CD74 % MaxInhib ([1]; Table 14): 12%
concentration of HPP Max Inhib (number after @) ([2]; Table 14): 3 µM
HPP Max Inhib ([2]; Table 14, number before @): 33%

COc1ccc(Cc2cn(-c3ccc(O)cc3)nn2)cc1 [MIF-086]
concentration of C74 % MaxInhib (number after @) [1]: 0.078
C74 % MaxInhib [1]: 36%
IC50 ([2]; Table 18): 65 µM

Oc1ccc(Cc2cn(-c3ccc(O)cc3)nn2)cc1 [MIF-087]
concentration of C74 % MaxInhib (number after @) [1]: 0.078
C74 % MaxInhib [1]: 23%
IC50 ([2]; Table 18): 690 µM

COc1ccc2oc(C(=O)N3CCc4ccccc43)cc2c1 [MIF-088]
concentration of CD74 % MaxInhib (number after @) ([1]; Table 14): 0.24 µM
CD74 % MaxInhib ([1]; Table 14): 30%
concentration of HPP Max Inhib (number after @) ([2]; Table 14): 5 µM
HPP Max Inhib ([2]; Table 14, number before @): 23%
